In US20200399335A1, “MODIFIED IMMUNOMODULATORY PEPTIDE” (Aarhus Universitet, priority 2018, published 2020):
Where no end group is shown, it is not given here. The star is where a group is joined. Biotin = O=C1N[C@H]2[C@H](CS[C@H]2CCCCC(=O)*)N1

How the values were obtained:
[1] = Circular dichroism spectrum of polypeptides; assay type: physicochemical; details: in the recommended buffer
From the text: FIG. 5. CD spectra of polypeptides with specific alanine mutations.
The Example illustrate the CD spectrum of polypeptide (SEQ ID NO. 6) and two alanine mutations (SEQ ID NO. 17 and 19). […] FIG. 5.

STING activation [2] = assay: Screening of alanine modified peptides in PMA-differentiated THP1 cells stimulated with 2′3′cGAMP; details: PMA-treated THP1 (STING HAQ), peptide pre-stimulation 1 hour, then 2′3′cGAMP, supernatant 20 hours; alanine variant vs SEQ ID NO.6
From the text: Screening of alanine modified peptides in THP1 cells. […] THP1 cells were differentiated into macrophages using PMA. […] Twenty hours later supernatants were harvest and used to assess the production of type I IFN (A) or CXCL10 (B). Data represent the mean±SD of biological triplicates, representative of two independent experiments
(§1) To quantify functional type I IFN the reporter cell line HEK-Blue™ IFN-α/β (InvivoGen) was utilized according to the manufacturer's instructions. […] This cell line expresses secreted embryonic alkaline phosphatase under the control of the IFN-α/β inducible ISG54 promotor. SEAP activity was assessed by measuring optical density (OD) at 620 nm on a micro plate reader (ELx808, BioTEK). The standard range was made with IFN-α (A2) (PBL Assay Science).
(§2) Protein levels of the cytokines CXCL10 and IL6 in supernatants, were measured using DuoSet ELISA kits from RnD following the manufacturer's instructions.

STING activation [3] = details: PBMCs of two donors with wildtype STING, peptide priming then HT-DNA, 20 hours; vs parental SEQ ID NO.6
Method: Both donors carried STING wildtype proteins allowing us to evaluate important amino acid positions within the polypeptide.
(§3) Peripheral Blood Mononuclear cells (PBMCs) were isolated from healthy donors by Ficoll Paque gradient centrifugation (GE Healthcare). PBMCs were cultured in RPMI complete supplemented with IL-2.
as §1, §2

HSV-1 GFP = HSV-1 GFP infection of human fibroblast, flow cytometry 48 hpi; details: for viral inhibition of alanine variant compared with SEQ ID NO.6 / viral inhibition: HSV-1 GFP MOI 0.05, 48 hpi
From the text: Screening of alanine modified peptides in human fibroblasts.
Data was processed in FlowJo (Tree Star)

STING activity = details: PBMCs from two donors, peptide pre-treatment then cGAMP; vs peptide 101
Method: as §3, §1, §2

human fibroblast = assay: Cell viability test in human fibroblast (CellTiter-Glo); assay type: cell-based; details: 48 hpi
Method: FIG. 8. Cell viability test. […] As a positive control for cell death, human fibroblast was treated with staurosporine (500 nM). Cell viability was analyzed 48 hpi.
The highest peptide concentration utilized in the present studies reached a maximum cell death percentage of less than 10%; cf. FIG. 8.
Viability tests were conducted using the CellTiter-Glo® 2.0 Assay (Promega, G9242). Each sample was conducted in technical triplicates and luminescence data analyzed.

STING activation [4] = details: previously shown; no details given; cited from earlier work

In the case of “KKYKNIVLLKALEVINDYHF ((1)..(20) An immunomodulatory polypeptide derived from the pyrin domain of human IFI16 with amino acid residue changes.) [peptide A11]”, the “secondary structure from CD spectrum” value [1] is reported as “random coil-coil formation” and the “synergistic effect of supporting STING activation: CXCL10 cytokine secretion” value (shortened to “synergistic effect … CXCL10 cytokine secretion”) (STING activation [2]) is reported as “strongly affected the synergistic effects”.

With “KKYKNIVLLKGLEVANDYHF ((1)..(20) An immunomodulatory polypeptide derived from the pyrin domain of human IFI16 with amino acid residue changes.) [peptide A15]” the “secretion of interleukin IL6” value (STING activation [3]) was “prohibited the synergistic effects”.

For “KKYKNIVLLKGLEVINDYHA ((1)..(20) An immunomodulatory polypeptide derived from the pyrin domain of human IFI16 with amino acid residue changes.) [peptide A20]”, the “synergistic effect … CXCL10 cytokine secretion” value (STING activation [2]) was “strongly affected the synergistic effects”.

With “KKYKNIALLKGLEVINDYHF ((1)..(20) An immunomodulatory polypeptide derived from the pyrin domain of human IFI16 with amino acid residue changes.) [peptide A7]” the “viral inhibition of alanine variant compared with SEQ ID NO.6” value (HSV-1 GFP) was “depleted” and the “secretion of interleukin IL6” value (STING activation [3]) was “prohibited the synergistic effects”.

For “KKYKNIVLLKGLAVINDYAA ((1)..(20) An immunomodulatory polypeptide derived from the pyrin domain of human IFI16 with amino acid residue changes.) [peptide 107]”, the CXCL10 secretion (STING activity) was “supported increased IFN and CXCL10 secretion”, the IFN secretion (STING activity) was “supported increased IFN and CXCL10 secretion” and the IL6 response (STING activity) was “impaired the IL6 response”.

With “KKYKNIVLLKGAEVINDYHF ((1)..(20) An immunomodulatory polypeptide derived from the pyrin domain of human IFI16 with amino acid residue changes.) [peptide A12]” the “synergistic effect of supporting STING activation: induction of type I IFNs” value (“synergistic effect … of type I IFNs” for short) (STING activation [2]) was “affected polypeptide synergistic effects”.

For “KKYKNIVLLKGLEAINDYHF ((1)..(20) An immunomodulatory polypeptide derived from the pyrin domain of human IFI16 with amino acid residue changes.) [peptide A14]”, the “viral inhibition of alanine variant compared with SEQ ID NO.6” value (HSV-1 GFP) was “decreased”.

For “KKYKNAVLLKGLEVINDYHF ((1)..(20) An immunomodulatory polypeptide derived from the pyrin domain of human IFI16 with amino acid residue changes.) [peptide A6]”, the “viral inhibition of alanine variant compared with SEQ ID NO.6” value (HSV-1 GFP) was “depleted”, the “secretion of interleukin IL6” value (STING activation [3]) was “prohibited the synergistic effects” and the “synergistic effect … of type I IFNs” value (STING activation [2]) was “affected polypeptide synergistic effects”.

In the case of KKYKNIVLLKGLEVINDYHF-NH2 [peptide 101], the “toxicity in human fibroblast” value (human fibroblast; HSV-1 GFP, HSV-2 GFP (MOI 0.05) or uninfected) is reported as “no toxicity” and the “maximum cell death percentage” value (human fibroblast; highest peptide concentration utilized (80 μg/mL)) is reported as “less than 10%”.

For “KKYKNIVALKGLEVINDYHF ((1)..(20) An immunomodulatory polypeptide derived from the pyrin domain of human IFI16 with amino acid residue changes.) [peptide A8]”, the “synergistic effect … of type I IFNs” value (STING activation [2]) was “affected polypeptide synergistic effects”.

With “KAYKNIVLLKGLEVINDYHF ((1)..(20) An immunomodulatory polypeptide derived from the pyrin domain of human IFI16 with amino acid residue changes.) [peptide A2]” the “secretion of interleukin IL6” value (STING activation [3]) was “very potent and synergistic effect”, the “secretion of the chemokine CXCL10” value (STING activation [3]) was “partly impaired CXCL10” and the “synergistic effect … of type I IFNs” value (STING activation [2]) was “affected polypeptide synergistic effects”.

In the case of “Biotin-EDIPTLEDLAETLKKEKLKGRKKRRQRRRPQ-NH2 [S7]”, the “synergistic effects on STING activation” value (STING activation [4]) is listed as “not to lead to synergistic effects on STING activation”.

With “KKYKNIVLLKGLEVIADYHF ((1)..(20) An immunomodulatory polypeptide derived from the pyrin domain of human IFI16 with amino acid residue changes.) [peptide A16]” the “secretion of interleukin IL6” value (STING activation [3]) was “prohibited the synergistic effects”.

For “KKYKNIVLLKGLAVINDYHF ((1)..(20) An immunomodulatory polypeptide derived from the pyrin domain of human IFI16 with amino acid residue changes.) [peptide A13]”, the “secondary structure from CD spectrum” value [1] was “random coil-coil formation”, the “secretion of the chemokine CXCL10” value (STING activation [3]) was “without affecting CXL10 responses” and the “type I IFN responses” value (STING activation [3]) was “significantly increased type I IFN responses”. For the same substance, the “synergistic effect … CXCL10 cytokine secretion” value (STING activation [2]) was “strongly affected the synergistic effects” and the “synergistic effect … of type I IFNs” value (STING activation [2]) was “affected polypeptide synergistic effects”.

For “KKYKNIVLLKGLEVINDYAF ((1)..(20) An immunomodulatory polypeptide derived from the pyrin domain of human IFI16 with amino acid residue changes.) [peptide A19]”, the “synergistic effect … CXCL10 cytokine secretion” value (STING activation [2]) was “strongly affected the synergistic effects”.

For “KKAKNIVLLKGLEVINDYHF ((1)..(20) An immunomodulatory polypeptide derived from the pyrin domain of human IFI16 with amino acid residue changes.) [peptide A3]”, the “secretion of interleukin IL6” value (STING activation [3]) was “very potent and synergistic effect”.

For “KKYKNIVLLAGLEVINDYHF ((1)..(20) An immunomodulatory polypeptide derived from the pyrin domain of human IFI16 with amino acid residue changes.) [peptide A10]”, the viral inhibition (HSV-1 GFP) was ~100%, the “antiviral effect compared with polypeptide NO. 6 at increased MOI” value (HSV-1 GFP; HSV-1 GFP MOI 0.1, 25 μg/mL, 48 hpi) was “increased effect” and the “secretion of interleukin IL6” value (STING activation [3]) was “damped IL6 secretion”. For the same substance, the “secretion of the chemokine CXCL10” value (STING activation [3]) was “without affecting CXL10 responses”, the “type I IFN responses” value (STING activation [3]) was “significantly increased type I IFN responses” and the “synergistic effect … of type I IFNs” value (STING activation [2]) was “affected polypeptide synergistic effects”.

In the case of “KKYKNIVLLKGLEVINAYHF ((1)..(20) An immunomodulatory polypeptide derived from the pyrin domain of human IFI16 with amino acid residue changes.) [peptide A17]”, the viral inhibition (HSV-1 GFP) is reported as ~100%.

For “KKYKNIVLAKGLEVINDYHF ((1)..(20) An immunomodulatory polypeptide derived from the pyrin domain of human IFI16 with amino acid residue changes.) [peptide A9]”, the “synergistic effect … of type I IFNs” value (STING activation [2]) was “affected polypeptide synergistic effects”.
